In PubChem BioAssay (NCI):
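Where inhibition never reached the appropriate level, the endpoint shown equals the highest concentration tested. Otherwise, values were interpolated linearly from a five-concentration, 48-hour dose response in 96-well plates. TGI denotes the concentration required for complete inhibition of growth.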

Experiments:
Assay in all cases: NCI anticancer screen, dose series, 48 h
[1] = system: SK-MEL-2 melanoma
[2] = system: OVCAR-8 ovarian
[3] = system: UACC-62 melanoma
[4] = system: MDA-N
[5] = system: TK-10 renal
[6] = system: LOX IMVI melanoma
[7] = system: MOLT-4 leukemia
[8] = system: SN12C renal
[9] = system: NCI-H226 lung
[10] = system: HOP-62 NSCLC
[11] = system: OVCAR-3 ovarian
[12] = system: MDA-MB-435
[13] = system: COLO 205 colon
[14] = system: ACHN renal
[15] = system: MDA-MB-231 breast
[16] = system: SR leukemia
[17] = system: RPMI-8226 leukemia
[18] = system: NCI/ADR-RES ovarian
[19] = system: A549 NSCLC
[20] = system: UACC-257 melanoma
[21] = system: SF-539 CNS
[22] = system: DU-145 prostate
[23] = system: SF-268 CNS
[24] = system: CCRF-CEM leukemia
[25] = system: SW-620 colon
[26] = system: RXF 393 renal
[27] = system: HCC-2998 colon
[28] = system: SF-295 CNS
[29] = system: MALME-3M melanoma
[30] = system: 786-0 renal
[31] = system: SK-MEL-28 melanoma
[32] = system: MCF7 breast
[33] = system: NCI-H460 lung
[34] = system: HT29 colon
[35] = system: PC-3 prostate
[36] = system: IGROV1 ovarian
[37] = system: NCI-H23 lung
[38] = system: T-47D breast
[39] = system: SK-OV-3 ovarian
[40] = system: K-562 leukemia
[41] = system: EKVX NSCLC
[42] = system: SNB-75 CNS
[43] = system: HOP-92 NSCLC
[44] = system: HS 578T breast
[45] = system: UO-31 renal
[46] = system: CAKI-1 renal
[47] = system: M14 melanoma
[48] = system: OVCAR-5 ovarian
[49] = system: HCT-15 colon
[50] = system: A498 renal
[51] = system: SNB-19 CNS
[52] = system: HL-60(TB) leukemia
[53] = system: SK-MEL-5 melanoma
[54] = system: KM12 colon
[55] = system: OVCAR-4 ovarian
[56] = system: HCT-116 colon

SMILES: O=C1OCC2=C1C(c1ccc(Cl)cc1)c1cc3c(cc1O2)OCO3 (stereo unspecified)
- TGI [1]: > 100 µM
- TGI [2]: > 100 µM
- TGI [3]: > 100 µM
- TGI [4]: 3.9 µM
- TGI [5]: > 100 µM
- TGI [6]: > 100 µM
- TGI [7]: 46.3 µM
- TGI [8]: > 100 µM
- TGI [9]: > 100 µM
- TGI [10]: > 35.4 µM
- TGI [11]: > 100 µM
- TGI [12]: 5.31 µM
- TGI [13]: > 100 µM
- TGI [14]: > 100 µM
- TGI [15]: > 100 µM
- TGI [16]: > 31.6 µM
- TGI [17]: > 100 µM
- TGI [18]: > 31.2 µM
- TGI [19]: > 100 µM
- TGI [20]: > 100 µM
- TGI [21]: > 25.1 µM
- TGI [22]: > 100 µM
- TGI [23]: > 100 µM
- TGI [24]: > 100 µM
- TGI [25]: > 100 µM
- TGI [26]: > 100 µM
- TGI [27]: > 100 µM
- TGI [28]: > 100 µM
- TGI [29]: > 100 µM
- TGI [30]: > 100 µM
- TGI [31]: > 100 µM
- TGI [32]: > 27.2 µM
- TGI [33]: > 100 µM
- TGI [34]: > 100 µM
- TGI [35]: > 100 µM
- TGI [36]: > 100 µM
- TGI [37]: > 100 µM
- TGI [38]: > 100 µM
- TGI [39]: > 100 µM
- TGI [40]: > 100 µM
- TGI [41]: > 100 µM
- TGI [42]: > 100 µM
- TGI [43]: > 100 µM
- TGI [44]: > 72.2 µM
- TGI [45]: > 100 µM
- TGI [46]: 10.8 µM
- TGI [47]: > 100 µM
- TGI [48]: > 100 µM
- TGI [49]: > 100 µM
- TGI [50]: > 100 µM
- TGI [51]: > 100 µM
- TGI [52]: 12.8 µM
- TGI [53]: > 100 µM
- TGI [54]: > 100 µM
- TGI [55]: > 100 µM
- TGI [56]: > 34.6 µM
